Read-outs that look alike come from different tables or passages of the source.
Tests used:
Test in all cases: HotSpot kinase profiling
Assay type in all cases: biochemical
LIMK1 = biological target: T1, LIMK1 (Homo sapiens, UniProt P53667)
T1 construct: purchased Reaction Biology Corp
In short: (§1)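 Percent inhibition, averaged when run more than once and referenced to a DMSO negative control, came from a radioactive filter-binding readout on P81 paper. Reactions of kinase with freshly made substrate and cofactors ran for 2 h at room temperature.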

MEKK3 = biological target: T2, MEKK3 (Homo sapiens, UniProt Q99759)
T2 construct: purchased Reaction Biology Corp
T2 sequence (Q99759 1-626): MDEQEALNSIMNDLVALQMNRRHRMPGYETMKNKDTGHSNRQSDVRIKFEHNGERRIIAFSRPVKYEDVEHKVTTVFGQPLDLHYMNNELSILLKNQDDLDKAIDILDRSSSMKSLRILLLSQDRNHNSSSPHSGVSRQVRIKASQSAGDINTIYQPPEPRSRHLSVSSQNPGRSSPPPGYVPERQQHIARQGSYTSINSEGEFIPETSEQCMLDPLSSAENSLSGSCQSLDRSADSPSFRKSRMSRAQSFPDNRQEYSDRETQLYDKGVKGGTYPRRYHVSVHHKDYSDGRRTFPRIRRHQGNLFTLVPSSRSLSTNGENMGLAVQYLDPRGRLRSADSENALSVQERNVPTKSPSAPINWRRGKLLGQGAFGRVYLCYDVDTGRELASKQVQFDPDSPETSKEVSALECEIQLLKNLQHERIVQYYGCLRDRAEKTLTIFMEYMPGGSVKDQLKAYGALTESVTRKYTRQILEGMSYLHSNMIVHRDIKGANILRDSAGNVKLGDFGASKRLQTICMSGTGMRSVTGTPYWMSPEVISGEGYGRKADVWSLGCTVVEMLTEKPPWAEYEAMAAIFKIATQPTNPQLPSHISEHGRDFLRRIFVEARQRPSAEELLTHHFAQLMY
In short: as §1

MLK2/MAP3K10 = biological target: T3, MLK2/MAP3K10 (Homo sapiens, UniProt Q02779)
T3 construct: purchased Reaction Biology Corp
T3 sequence (Q02779 whole entry): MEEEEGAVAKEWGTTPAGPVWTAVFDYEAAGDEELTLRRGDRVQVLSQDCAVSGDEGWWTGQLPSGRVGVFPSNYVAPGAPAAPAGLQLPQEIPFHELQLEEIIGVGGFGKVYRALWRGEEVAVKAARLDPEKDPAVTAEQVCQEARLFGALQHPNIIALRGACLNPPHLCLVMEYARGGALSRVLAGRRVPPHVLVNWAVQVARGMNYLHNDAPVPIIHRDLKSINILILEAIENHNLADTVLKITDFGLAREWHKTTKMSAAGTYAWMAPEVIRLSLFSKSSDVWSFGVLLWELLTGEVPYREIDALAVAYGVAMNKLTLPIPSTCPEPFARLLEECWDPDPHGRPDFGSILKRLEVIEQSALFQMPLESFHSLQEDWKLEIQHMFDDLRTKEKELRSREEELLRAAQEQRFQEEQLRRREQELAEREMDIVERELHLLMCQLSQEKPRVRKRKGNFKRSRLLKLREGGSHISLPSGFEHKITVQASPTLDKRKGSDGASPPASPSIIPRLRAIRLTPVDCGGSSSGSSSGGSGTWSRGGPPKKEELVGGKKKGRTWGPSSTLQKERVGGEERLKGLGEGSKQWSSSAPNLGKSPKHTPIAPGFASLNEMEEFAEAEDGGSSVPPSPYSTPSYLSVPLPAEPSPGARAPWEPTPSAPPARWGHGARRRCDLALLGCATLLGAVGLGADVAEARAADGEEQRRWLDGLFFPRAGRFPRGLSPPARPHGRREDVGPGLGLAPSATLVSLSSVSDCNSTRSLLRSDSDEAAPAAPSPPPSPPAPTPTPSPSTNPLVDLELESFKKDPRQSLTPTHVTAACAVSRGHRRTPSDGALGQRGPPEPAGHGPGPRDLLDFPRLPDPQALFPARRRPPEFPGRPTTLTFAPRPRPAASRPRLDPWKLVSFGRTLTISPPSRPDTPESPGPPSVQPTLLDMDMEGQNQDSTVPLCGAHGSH
In short: as §1

PKCepsilon = biological target: T4, PKCepsilon (Homo sapiens, UniProt Q02156)
T4 construct: purchased Reaction Biology Corp
T4 sequence (Q02156 1-737): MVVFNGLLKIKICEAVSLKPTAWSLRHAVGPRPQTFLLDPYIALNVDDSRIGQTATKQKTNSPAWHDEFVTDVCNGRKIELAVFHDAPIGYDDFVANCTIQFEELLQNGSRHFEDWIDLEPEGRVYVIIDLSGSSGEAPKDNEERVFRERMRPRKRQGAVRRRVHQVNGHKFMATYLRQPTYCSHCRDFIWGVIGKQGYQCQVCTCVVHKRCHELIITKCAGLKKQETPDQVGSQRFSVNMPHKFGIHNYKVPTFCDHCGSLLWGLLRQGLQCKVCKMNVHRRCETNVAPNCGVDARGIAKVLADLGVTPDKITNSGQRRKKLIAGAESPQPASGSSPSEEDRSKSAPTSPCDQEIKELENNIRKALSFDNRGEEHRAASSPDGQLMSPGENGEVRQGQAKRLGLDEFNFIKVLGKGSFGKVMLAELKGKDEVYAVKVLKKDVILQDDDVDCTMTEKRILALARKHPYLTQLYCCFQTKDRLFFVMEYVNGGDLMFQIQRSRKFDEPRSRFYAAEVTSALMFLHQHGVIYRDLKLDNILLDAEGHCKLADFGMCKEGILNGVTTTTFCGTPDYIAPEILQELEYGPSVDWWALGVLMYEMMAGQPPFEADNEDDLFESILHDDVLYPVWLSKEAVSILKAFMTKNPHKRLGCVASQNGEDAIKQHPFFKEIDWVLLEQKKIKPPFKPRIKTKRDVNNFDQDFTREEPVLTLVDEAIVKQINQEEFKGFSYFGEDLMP
In short: as §1

TBK1 = biological target: T5, TBK1 (Homo sapiens, UniProt Q9UHD2)
T5 construct: purchased Reaction Biology Corp
T5 sequence (Q9UHD2 1-729): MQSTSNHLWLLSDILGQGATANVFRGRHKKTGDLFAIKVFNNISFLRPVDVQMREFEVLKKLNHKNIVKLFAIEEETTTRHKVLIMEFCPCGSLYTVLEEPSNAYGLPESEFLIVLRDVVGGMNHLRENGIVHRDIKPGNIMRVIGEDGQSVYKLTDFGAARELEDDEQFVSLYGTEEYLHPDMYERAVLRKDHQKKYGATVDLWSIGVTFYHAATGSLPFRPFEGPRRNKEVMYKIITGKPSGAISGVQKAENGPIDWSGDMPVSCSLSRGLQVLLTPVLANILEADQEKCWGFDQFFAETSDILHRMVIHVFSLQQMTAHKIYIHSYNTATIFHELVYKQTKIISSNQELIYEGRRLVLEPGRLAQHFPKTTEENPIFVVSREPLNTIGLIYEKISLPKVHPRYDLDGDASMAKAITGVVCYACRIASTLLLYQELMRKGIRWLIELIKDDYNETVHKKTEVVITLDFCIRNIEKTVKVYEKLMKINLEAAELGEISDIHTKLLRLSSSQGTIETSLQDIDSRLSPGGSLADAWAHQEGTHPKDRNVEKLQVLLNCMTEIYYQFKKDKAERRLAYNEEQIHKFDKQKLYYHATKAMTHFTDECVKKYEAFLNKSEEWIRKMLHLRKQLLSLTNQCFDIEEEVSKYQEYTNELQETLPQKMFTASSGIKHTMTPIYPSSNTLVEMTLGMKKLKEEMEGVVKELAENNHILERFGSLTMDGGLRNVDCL
In short: as §1

TYK1/LTK = biological target: T6, TYK1/LTK (Homo sapiens, UniProt P29376)
T6 construct: purchased Reaction Biology Corp
T6 sequence (P29376 17-864): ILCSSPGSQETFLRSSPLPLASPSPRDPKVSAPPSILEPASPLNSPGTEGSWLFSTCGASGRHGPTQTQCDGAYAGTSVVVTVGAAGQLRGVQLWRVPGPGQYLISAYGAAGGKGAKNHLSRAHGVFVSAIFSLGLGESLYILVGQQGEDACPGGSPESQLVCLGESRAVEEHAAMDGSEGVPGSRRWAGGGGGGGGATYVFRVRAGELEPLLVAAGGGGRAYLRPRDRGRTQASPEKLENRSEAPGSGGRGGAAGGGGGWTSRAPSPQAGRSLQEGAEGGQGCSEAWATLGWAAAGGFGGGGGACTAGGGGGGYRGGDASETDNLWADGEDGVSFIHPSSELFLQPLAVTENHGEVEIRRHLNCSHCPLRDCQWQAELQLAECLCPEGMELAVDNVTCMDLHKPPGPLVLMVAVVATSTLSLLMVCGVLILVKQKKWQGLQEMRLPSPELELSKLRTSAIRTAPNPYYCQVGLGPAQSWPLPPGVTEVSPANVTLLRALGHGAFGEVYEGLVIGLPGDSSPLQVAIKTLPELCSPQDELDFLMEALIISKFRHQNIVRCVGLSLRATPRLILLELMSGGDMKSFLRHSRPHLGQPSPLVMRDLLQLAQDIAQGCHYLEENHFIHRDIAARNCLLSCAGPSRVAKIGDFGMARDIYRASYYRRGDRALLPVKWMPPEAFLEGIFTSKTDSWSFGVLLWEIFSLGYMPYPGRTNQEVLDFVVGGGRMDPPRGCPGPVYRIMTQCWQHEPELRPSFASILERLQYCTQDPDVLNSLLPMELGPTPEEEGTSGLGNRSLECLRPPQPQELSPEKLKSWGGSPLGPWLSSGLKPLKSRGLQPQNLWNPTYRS
In short: as §1

[1] = read-out: % Enzyme Activity (relative to DMSO controls) Run 1
[2] = read-out: % Enzyme Activity (relative to DMSO controls) Run 2

T1 sequence (P53667 whole entry): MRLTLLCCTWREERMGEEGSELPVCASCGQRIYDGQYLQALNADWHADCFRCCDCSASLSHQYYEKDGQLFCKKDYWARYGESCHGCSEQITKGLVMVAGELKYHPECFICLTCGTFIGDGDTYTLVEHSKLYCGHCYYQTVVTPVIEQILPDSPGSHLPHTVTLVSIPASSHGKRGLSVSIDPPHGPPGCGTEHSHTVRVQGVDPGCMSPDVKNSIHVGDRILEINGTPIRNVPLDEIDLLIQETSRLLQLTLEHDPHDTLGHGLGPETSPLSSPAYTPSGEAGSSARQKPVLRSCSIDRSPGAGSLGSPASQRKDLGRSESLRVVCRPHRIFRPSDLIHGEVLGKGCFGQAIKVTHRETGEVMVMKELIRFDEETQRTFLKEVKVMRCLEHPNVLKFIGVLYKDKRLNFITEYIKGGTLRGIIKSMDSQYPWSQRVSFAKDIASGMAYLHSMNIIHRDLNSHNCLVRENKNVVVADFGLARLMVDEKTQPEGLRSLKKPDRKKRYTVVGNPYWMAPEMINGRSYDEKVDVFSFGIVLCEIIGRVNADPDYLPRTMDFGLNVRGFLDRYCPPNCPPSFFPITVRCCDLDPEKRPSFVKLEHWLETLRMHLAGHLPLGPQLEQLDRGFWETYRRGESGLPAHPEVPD

## C=CC(=O)Nc1cccc(Nc2nc(Nc3ccc(OCCOC)c(F)c3)ncc2F)c1 [Compound 2]
LIMK1
  inhibition at 3 µM: 38.8%
LIMK1; [1]
  remaining activity at 3 µM: 61%
LIMK1; [2]
  remaining activity at 3 µM: 61.4%
MEKK3
  inhibition at 3 µM: -4.03%
MEKK3; [1]
  remaining activity at 3 µM: 102%
MEKK3; [2]
  remaining activity at 3 µM: 106%
MLK2/MAP3K10
  inhibition at 3 µM: 54.6%
MLK2/MAP3K10; [1]
  remaining activity at 3 µM: 45.4%
MLK2/MAP3K10; [2]
  remaining activity at 3 µM: 45.3%
PKCepsilon
  inhibition at 3 µM: 6.29%
PKCepsilon; [1]
  remaining activity at 3 µM: 93.2%
PKCepsilon; [2]
  remaining activity at 3 µM: 94.2%
TBK1
  inhibition at 3 µM: 41.3%
TBK1; [1]
  remaining activity at 3 µM: 58.1%
TBK1; [2]
  remaining activity at 3 µM: 59.2%
TYK1/LTK
  inhibition at 3 µM: 23.2%
TYK1/LTK; [1]
  remaining activity at 3 µM: 77.8%
TYK1/LTK; [2]
  remaining activity at 3 µM: 75.8%
